Tests used:
IL-8 release, PBMCs = test: LPS-induced IL-8 release in PBMC cells; type: cell-based; settings: Homo sapiens, LPS stimulated, read-out: IC50 Values for Inhibition of Cytokine Release, PBMCs, IL-8
Description: (b) LPS-Induced TNFα/IL-8 Release in PBMC Cells
Peripheral blood mononuclear cells (PBMCs) from healthy subjects are separated from whole blood using a density gradient (Lymphoprep, Axis-Shield Healthcare). The PBMCs are seeded in 96 well plates and treated with compounds at the desired concentration for 2 hours before addition of 1 ng/ml LPS (Escherichia Coli 0111:B4 from Sigma Aldrich) for 24 hours under normal tissue culture conditions (37° C., 5% CO2). The supernatant is harvested for determination of […] concentrations by sandwich ELISA (Duo-set, R&D systems) and read on the fluorescence microplate reader (Varioskan® Flash, ThermoFisher Scientific).

GSK3α [1] = biological target: T1, GSK3α (Homo sapiens, UniProt P49840); test: GSK 3α enzyme inhibition (FRET), Method 2; type: biochemical; settings: Table 4a2, different laboratory
T1 sequence (P49840 whole entry): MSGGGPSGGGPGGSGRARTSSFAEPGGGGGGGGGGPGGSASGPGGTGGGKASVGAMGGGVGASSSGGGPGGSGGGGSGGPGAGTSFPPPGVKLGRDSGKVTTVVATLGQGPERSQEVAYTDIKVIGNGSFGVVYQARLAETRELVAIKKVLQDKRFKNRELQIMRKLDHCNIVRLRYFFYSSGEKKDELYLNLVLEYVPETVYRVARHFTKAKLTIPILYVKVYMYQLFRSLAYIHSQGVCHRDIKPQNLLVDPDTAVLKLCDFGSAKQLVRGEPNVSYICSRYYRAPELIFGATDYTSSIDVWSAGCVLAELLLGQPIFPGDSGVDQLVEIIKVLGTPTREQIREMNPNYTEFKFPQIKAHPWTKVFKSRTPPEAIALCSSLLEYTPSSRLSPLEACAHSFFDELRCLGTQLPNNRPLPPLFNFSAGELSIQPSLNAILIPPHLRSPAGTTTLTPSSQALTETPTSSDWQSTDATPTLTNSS

[2] = system: TNFα release, d-U937 cells; test: LPS-induced TNFα release in d-U937 cells; type: cell-based; settings: Homo sapiens, dU937; relative to 10 μg/mL BIRB796; Table 4c1; read-out: LPS Induced Release of Cytokine in d-U937 Cells, TNFα REC50
Method in brief: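 Sandwich ELISA quantifies cytokine in supernatants after 4 hr LPS challenge (0.1 μg/mL) of PMA-differentiated (100 ng/mL, 48–72 hr) U937 macrophages given compound 2 hr beforehand. REC50 derived from concentration-response curve, inhibition calculated relative to vehicle.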

Syk = Syk (Homo sapiens, UniProt P43405); test: Syk enzyme inhibition (FRET); type: biochemical; settings: Table 4a1
Method in brief: (§1)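 2 hr RT enzyme + cpd (added solns 4/0.4/0.04/0.004 μg/mL); + FRET peptide (8 μM soln) + ATP soln (c-Src 800 μM, Syk 60 μM), 1 hr; protease development 1 hr; read donor/acceptor emission ratio.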

[3] = system: ICAM-1 expression, BEAS2B cells; test: Poly I:C-induced ICAM-1 expression in BEAS2B cells; type: cell-based; settings: Homo sapiens, BEAS-2B; read-out: Poly IC induced ICAM1 in BEAS2B, IC50
Method in brief: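 Cell-based ELISA for surface ICAM-1 in human BEAS2B cells 18 h after transfection with the RNA-virus mimic poly I:C (1 μg/mL, with Oligofectamine), compounds added 2 h beforehand. OD450–655 divided by Crystal Violet OD595 per well; percent inhibition relative to vehicle.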

cSrc = cSrc (Homo sapiens, UniProt P12931); test: c-Src enzyme inhibition (FRET); type: biochemical; settings: Table 4a1
Sequence of cSrc (P12931 whole entry): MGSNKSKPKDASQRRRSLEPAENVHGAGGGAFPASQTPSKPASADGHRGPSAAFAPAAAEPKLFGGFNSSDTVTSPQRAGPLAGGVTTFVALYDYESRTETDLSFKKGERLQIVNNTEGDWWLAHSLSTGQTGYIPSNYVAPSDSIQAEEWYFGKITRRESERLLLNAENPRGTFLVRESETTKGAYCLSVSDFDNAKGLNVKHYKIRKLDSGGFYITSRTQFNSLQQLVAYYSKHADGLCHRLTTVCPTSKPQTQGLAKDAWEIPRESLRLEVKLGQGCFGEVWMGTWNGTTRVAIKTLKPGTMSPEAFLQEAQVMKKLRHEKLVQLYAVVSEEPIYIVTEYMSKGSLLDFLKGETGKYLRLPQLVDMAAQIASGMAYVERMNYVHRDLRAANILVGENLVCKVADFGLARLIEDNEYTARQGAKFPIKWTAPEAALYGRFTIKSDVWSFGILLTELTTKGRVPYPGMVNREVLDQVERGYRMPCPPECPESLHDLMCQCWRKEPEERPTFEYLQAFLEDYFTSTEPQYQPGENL
Method in brief: as §1

GSK3α [4] = biological target: T1, GSK3α; test: GSK 3α enzyme inhibition (FRET), Method 1; type: biochemical; settings: Table 4a1
Method in brief: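 Compounds are tested at added-solution levels of 4, 0.4, 0.04 or 0.004 μg/mL against GSK3α, with a 2 hr RT preincubation. Kinase reaction with FRET peptide and ATP (8 μM and 40 μM as added) runs 1 hr, and phosphorylation is judged by the protease-sensitive FRET ratio.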

d-U937 cells = test: Cell viability: MTT assay; type: cell-based, human; settings: 1 μg/mL
Method in brief: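 MTT reduction (1 h, DMSO solubilisation, A550) measured after compound treatment at 1 or 10 μg/mL of differentiated U937 cells for 4 h (5% FCS RPMI1640) or 24 h (10% FCS). Percentage viability loss computed relative to 0.5% DMSO vehicle, with increases tabulated as negative values.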

[5] = system: IL-8 release, d-U937 cells; test: LPS-induced IL-8 release in d-U937 cells; type: cell-based; settings: Homo sapiens, dU937; Table 4c1; read-out: LPS Induced Release of Cytokine in d-U937 Cells, IL-8 IC50
Method in brief: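 IL-8 release after a 4 hr challenge with LPS (0.1 μg/mL, E. coli 0111:B4) following a 2 hr compound pretreatment. Cells were human U937 monocytes differentiated to macrophage-type with PMA 100 ng/mL for 48–72 hr. Relative 50% effective concentration derived from concentration–response data.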

Row | IC50 (GSK3α [1]) | EC50 [2] | IC50 (Syk) | IC50 (cSrc) | IC50 (GSK3α [4]) | IC50 [5] | SMILES | IC50 (IL-8 release, PBMCs) | IC50 [3] | Cell viability at time point in d-U937 cells, 4 h (d-U937 cells) | Cell viability at time point in d-U937 cells, 24 h (d-U937 cells)
1 | 154 nM | – | – | – | – | – | C#Cc1cc(Nc2nccc(Oc3ccc(NC(=O)Nc4cc(C(C)C)nn4-c4ccc(C)cc4)c(Cl)c3Cl)n2)cc(C(=O)NCCN(C)C)c1 [Example 90, 3-((4-(2,3-Dichloro-4-(3-(3-isopropyl-1-(p-tolyl)-1H-pyrazol-5-yl)ureido)-phenoxy)pyrimidin-2-yl)amino)-N-(2-(dimethylamino)ethyl)-5-ethynylbenzamide] | 7.8 nM | – | – | –
2 | 402 nM | – | – | – | – | – | C#Cc1cc(Nc2nccc(Oc3ccc(NC(=O)Nc4cc(C(C)(C)C)nn4-c4ccc(OC)nc4)c4ccccc34)n2)cc(C(=O)NCCN2CCOCC2)c1 [Example 73, 3-((4-((4-(3-(3-(tert-Butyl)-1-(6-methoxypyridin-3-yl)-1H-pyrazol-5-yl)ureido)naphthalen-1-yl)oxy)pyrimidin-2-yl)amino)-5-ethynyl-N-(2-morpholinoethyl)benzamide] | 0.5 nM | – | – | –
3 | 172 nM | – | – | – | – | – | C#Cc1cc(Nc2nccc(Oc3ccc(NC(=O)Nc4cc(C(C)C)nn4-c4ccc(C)cc4)c(F)c3F)n2)cc(C(=O)NCCN2CCOCC2)c1 [Example 88, 3-((4-(2,3-Difluoro-4-(3-(3-isopropyl-1-(p-tolyl)-1H-pyrazol-5-yl)ureido)-phenoxy)pyrimidin-2-yl)amino)-5-ethynyl-N-(2-morpholinoethyl)benzamide] | 13.1 nM | – | – | –
4 | ≥ 15300 nM | – | – | – | – | – | C#Cc1cc(Nc2nccc(Oc3ccc(NC(=O)Nc4cc(C(C)C)nn4-c4ccc(C)cc4)c(Cl)c3Cl)n2)cc(C(N)=O)c1 [Example 89, 3-((4-(2,3-Dichloro-4-(3-(3-isopropyl-1-(p-tolyl)-1H-pyrazol-5-yl)ureido)-phenoxy)pyrimidin-2-yl)amino)-5-ethynylbenzamide] | 14.6 nM | – | – | –
5 | – | 11.7 nM | 296 nM | < 1 nM | 8470 nM | 46.3 nM | COc1ccc(-n2nc(C3CCCO3)cc2NC(=O)Nc2ccc(Oc3ccnc(Nc4cc(OC)cc(C(=O)NCCN5CCOCC5)c4)n3)c3ccccc23)cc1 (centres unmarked) [Example 58, 3-methoxy-5-((4-((4-(3-(1-(4-methoxyphenyl)-3-(tetrahydrofuran-2-yl)-1H-pyrazol-5-yl)ureido)naphthalen-1-yl)oxy)pyrimidin-2-yl)amino)-N-(2-morpholinoethyl)benzamide] | – | 2.1 nM | −ve (−ve and +ve indicate that the value is below and above respectively, the no significant effect threshold, defined as 30% inhibition at 1 μg/mL at the time point indicated) | −ve (−ve and +ve indicate that the value is below and above respectively, the no significant effect threshold, defined as 30% inhibition at 1 μg/mL at the time point indicated)
6 | – | 1.5 nM | 35 nM | 3 nM | 309 nM | 1.8 nM | CCCNC(=O)c1cccc(Nc2nccc(Oc3ccc(NC(=O)Nc4cc(C(C)(C)C)nn4-c4ccc(OC)cc4)c4ccccc34)n2)c1 [Example 17, 3-(4-(4-(3-(3-tert-butyl-1-(4-methoxyphenyl)-1H-pyrazol-5-yl)ureido)naphthalen-1-yloxy)pyrimidin-2-ylamino)-N-propylbenzamide] | – | 2.6 nM | −ve (−ve and +ve indicate that the value is below and above respectively, the no significant effect threshold, defined as 30% inhibition at 1 μg/mL at the time point indicated) | −ve (−ve and +ve indicate that the value is below and above respectively, the no significant effect threshold, defined as 30% inhibition at 1 μg/mL at the time point indicated)
7 | – | 0.4 nM | 13 nM | 2 nM | 122 nM | 0.8 nM | COc1cc(Nc2nccc(Oc3ccc(NC(=O)Nc4cc(C(C)(C)C)nn4-c4ccc(C)cc4)c4ccccc34)n2)cc(C(=O)NCCO)c1 [Example 64, 3-((4-((4-(3-(3-(tert-butyl)-1-(p-tolyl)-1H-pyrazol-5-yl)ureido)naphthalen-1-yl)oxy)pyrimidin-2-yl)amino)-N-(2-hydroxyethyl)-5-methoxybenzamide] | – | 1 nM | −ve (−ve and +ve indicate that the value is below and above respectively, the no significant effect threshold, defined as 30% inhibition at 1 μg/mL at the time point indicated) | −ve (−ve and +ve indicate that the value is below and above respectively, the no significant effect threshold, defined as 30% inhibition at 1 μg/mL at the time point indicated)
8 | – | 0.4 nM | 15 nM | 10 nM | 1200 nM | 0.4 nM | COc1ccc(-n2nc(C(C)(C)C)cc2NC(=O)Nc2ccc(Oc3ccnc(Nc4cc(OC)cc(C(N)=O)c4)n3)c3ccccc23)cc1 [Example 41, 3-((4-((4-(3-(3-(tert-butyl)-1-(4-methoxyphenyl)-1H-pyrazol-5-yl)ureido)naphthalen-1-yl)oxy)pyrimidin-2-yl)amino)-5-methoxybenzamide] | – | 2 nM | −ve (−ve and +ve indicate that the value is below and above respectively, the no significant effect threshold, defined as 30% inhibition at 1 μg/mL at the time point indicated) | −ve (−ve and +ve indicate that the value is below and above respectively, the no significant effect threshold, defined as 30% inhibition at 1 μg/mL at the time point indicated)
9 | – | 2.8 nM | 51 nM | 3 nM | 9630 nM | 7.1 nM | COc1ccc(C(=O)NCCN2CCOCC2)cc1Nc1nccc(Oc2ccc(NC(=O)Nc3cc(C(C)(C)C)nn3-c3ccc(C)cc3)c3ccccc23)n1 [Example 31, 3-((4-((4-(3-(3-(tert-butyl)-1-(p-tolyl)-1H-pyrazol-5-yl)ureido)naphthalen-1-yl)oxy)pyrimidin-2-yl)amino)-4-methoxy-N-(2-morpholinoethyl)benzamide] | – | 12 nM | −ve (−ve and +ve indicate that the value is below and above respectively, the no significant effect threshold, defined as 30% inhibition at 1 μg/mL at the time point indicated) | −ve (−ve and +ve indicate that the value is below and above respectively, the no significant effect threshold, defined as 30% inhibition at 1 μg/mL at the time point indicated)
10 | – | 0.5 nM | 14 nM | 6 nM | 390 nM | 2.3 nM | Cc1ccc(-n2nc(C(C)(C)C)cc2NC(=O)Nc2ccc(Oc3ccnc(Nc4cccc(C(=O)N(C)C)c4)n3)c3ccccc23)cc1 [Example 26, 3-((4-((4-(3-(3-(tert-butyl)-1-(p-tolyl)-1H-pyrazol-5-yl)ureido)naphthalen-1-yl)oxy)pyrimidin-2-yl)amino)-N,N-dimethylbenzamide] | – | 11.1 nM | −ve (−ve and +ve indicate that the value is below and above respectively, the no significant effect threshold, defined as 30% inhibition at 1 μg/mL at the time point indicated) | −ve (−ve and +ve indicate that the value is below and above respectively, the no significant effect threshold, defined as 30% inhibition at 1 μg/mL at the time point indicated)
